Where two headings read alike, the source gives them in different places.
Key:
HCC1395 = experiment: MTT cytotoxicity assay, HCC1395; details: Homo sapiens, HCC1395, read-out: cytotoxicity IC50 HCC1395
DLD-Seckle = experiment: MTT cytotoxicity assay, DLD-Seckle; details: read-out: cytotoxicity IC50 DLD-Seckle
Experimental: (§1) Cell lines and cytotoxicity assays: All cell lines were obtained from the American Type Culture Collection (ATCC) and cultured in the specified medium supplemented with 10% fetal bovine serum, 100 IU/mL penicillin, and 100 μg/mL streptomycin at 37° C. in a humidified 5% CO2/95% air incubator. […] To assess drug cytotoxicity, cells were seeded at 2,500 cells/well (10,000 cells/well for MM lines) in 100 μL medium in 96-well plate and after 24 treated with compounds for 72 h, incubated according to the manufacturer's protocol with the Thiazolyl Blue Tetrazolium Bromide (Sigma, M2128) and A570 measured using a Benchmark Plus microplate spectrophotometer (BIO-RAD). IC50 data was analyzed by Graphpad Prism software. In the chirality studies the cells were treated with compounds for 48 h, and the cells were incubated and measured via the preceeding protocols.

UWB1.289 = experiment: MTT cytotoxicity assay, UWB1.289; details: UWB1289, read-out: cytotoxicity IC50 UWB1.289
Experimental: as §1

[1] = Repeat dose MTD in healthy female CD1 mice; details: mouse, in vivo, 3 repeated doses every third day
Source text: The starting doses were based on previous studies with RA183. Doses were escalated incrementally in steps of not more than 50%. When either of these endpoints was met, dose escalation was halted and the prior dose was set as the MTD.

HeLa = details: human
in vitro = details: human
Experimental: as §1

[2] = system: proteasome (4UbFL reporter); experiment: 4UbFL reporter in leg muscle of CD1 mice; type: in vivo
Experimental: Pilot safety studies were performed in CD1 mice (n=3/dose group of healthy female mice aged 6-8 weeks) with increasing single doses delivered i.p. and the NOAEL (no-observed-adverse-effect level) was selected for further animal studies. […] Bortezomib was dissolved in a minimal amount of DMSO and further diluted with saline before injection in a dose finding study. […] To measure on-target inhibition of proteasome activity in mice, a leg muscle of CD-1 mice was transduced with the 4UbFL reporter construct. […] Briefly, mouse leg muscle was electroporated with 4UbFL plasmid and basal bioluminescence was measured after 24 hr using IVIS200 imager after injecting luciferin substrate. Mice were randomized (n=5/group) and treated with compounds in PEG400: Cremophor: Tween40 combination or vehicle alone as shown in Table 5 with one dose delivered by intraperitoneal injection. The mice were again imaged at 4 h, 24 h, 48 h post treatment.

DLD-BRCA2-Ve = experiment: MTT cytotoxicity assay, DLD-BRCA2-Ve; details: read-out: cytotoxicity IC50 DLD-BRCA2-Ve
Experimental: as §1

T22 = experiment: MTT cytotoxicity assay, T22; details: read-out: cytotoxicity IC50 T22, Tables 3A/4B/4C, BRCA2 + VE
A2780 = details: human
ES2 = experiment: MTT cytotoxicity assay, ES2
PEO14 = experiment: cells; details: read-out: cytotoxicity IC50 PEO14
Experimental: as §1

[3] = system: polyubiquitinated proteins; experiment: Western blot of polyubiquitinated proteins, SKOV3 cells; type: cell-based, human; details: 4 h
Experimental: FIG. 14A illustrates SKOV3 cells treated with compounds for 4 h and analyzed by Western blot analysis with antibody to ubiquitin.
Antibodies, reagents, and Western Blot Analyses: Cell lysate (10-20 μg total protein) prepared in MPER (Pierce) from each sample was subjected to SDS-PAGE, transferred to PVDF membranes and analyzed by Western blot using antibodies specific Bax (#2772, Cell Signaling), ubiquitin (P4D1, sc-8017, Santa Cruz), PARP (#9542, BD Pharmingen), actin (#66009, Protein Tech Group), Tubulin(#66031, Protein Tech Group), ADRM1/Rpn13 (D9Z1U, #12019, Cell Signaling), Lys48-linkled ubiquitin (Apu 2, 05-1307, (Millipore), Annexin V (#559763, BD pharmingen), caspase-3 (51-68655X, BD Pharmingen) at the dilutions recommended by the manufacturers, and for secondary antibodies either peroxidase-linked anti-mouse IgG or anti-rabbit IgG (GE Healthcare UK Ltd) were utilized, HRP conjugated streptavidin (N100, Thermo Fisher) at the recommended dilution (1:5000). MitoTracker Red CMXRos reagent was purchased from ThermoFisher #M7512. The blots were developed using HyGLO chemiluminescent detection reagent (Denville).

LNCaP = experiment: MTT cytotoxicity assay, LNCaP; details: Homo sapiens
ANBL6-V10R = experiment: MTT cytotoxicity assay, ANBL6-V10R; type: cell-based; details: read-out: IC50 ANBL6-V10R
Experimental: The cytotoxic efficacy of selected compounds was assessed against multiple myeloma (MM) cell lines, as this is a validated clinical target for the licensed proteasome inhibitors.
(§2) Cell lines and cytotoxicity assays: All cell lines were obtained from the American Type Culture Collection (ATCC) and cultured in the specified medium supplemented with 10% fetal bovine serum, 100 IU/mL penicillin, and 100 μg/mL streptomycin at 37° C. in a humidified 5% CO2/95% air incubator. […] To assess drug cytotoxicity, cells were seeded at 2,500 cells/well (10,000 cells/well for MM lines) in 100 μL medium in 96-well plate and after 24 treated with compounds for 72 h, incubated according to the manufacturer's protocol with the Thiazolyl Blue Tetrazolium Bromide (Sigma, M2128) and A570 measured using a Benchmark Plus microplate spectrophotometer (BIO-RAD). IC50 data was analyzed by Graphpad Prism software.

OVCAR5 = experiment: MTT cytotoxicity assay, OVCAR5; type: cell-based; details: Homo sapiens, read-out: IC50 OVCAR5
Experimental: as §2

[4] = read-out: cytotoxicity IC50 ES2, Tables 3A/4B/4C, MTT assay
[5] = read-out: cytotoxicity IC50 LNCAP

C[C@H]1/C(=C\c2ccc([N+](=O)[O-])cc2)C(=O)/C(=C/c2ccc([N+](=O)[O-])cc2)CN1C(=O)[C@@H](N)Cc1ccccc1
IC50 (HCC1395): 75 nM
IC50 (DLD-Seckle): 55 nM
IC50 (UWB1.289): 43.9 nM
MTD [1]: 20 mg/kg
IC50 (HeLa): 23 nM
IC50 (in vitro): 41 nM
fold increased bioluminescence (4UbFL, leg muscle) ([2]; CD1 mice, 30 mg/kg i.p., PEG400: Cremophor: Tween40, at 4 h and 24 h): 4-6 fold
fold increased bioluminescence (4UbFL, leg muscle) ([2]; mouse, in vivo, ip, 30 mg/kg): 14-22 fold
IC50 (DLD-BRCA2-Ve): 55 nM
IC50 (T22): 1360 nM
IC50 (A2780): 20 nM
IC50 (ES2; [4]): 40 nM
IC50 (PEO14): 92 nM
accumulation of polyubiquitinated proteins [3]: enhanced the accumulation of polyubiquitinated proteins

CC(C)C[C@H](NC(=O)[C@H](Cc1ccccc1)NC(=O)c1cnccn1)B(O)O [Bortezomib, bortezomib, reference compound]
IC50 (PEO14): 30 nM
accumulation of polyubiquitinated proteins [3]: enhanced the accumulation of polyubiquitinated proteins

N[C@@H](Cc1ccccc1)C(=O)N1C/C(=C\c2ccc([N+](=O)[O-])cc2)C(=O)/C(=C/c2ccc([N+](=O)[O-])cc2)C1 [RA183, reference compound]
IC50 (LNCaP; 48 h, read-out: IC50 LNCaP): 186 nM
IC50 (LNCaP; [5]): 186 nM
IC50 (ANBL6-V10R; 48 h): 103 nM
IC50 (OVCAR5; OVCAR-5, 48 h): 56 nM
IC50 (ES2; read-out: IC50 ES2, Table 3, MTT, 48 hr, Ovarian): 75 nM
IC50 (ES2; [4]): 75 nM
accumulation of polyubiquitinated proteins [3]: enhanced the accumulation of polyubiquitinated proteins

N[C@@H](Cc1ccccc1)C(=O)N1C/C(=C\c2ccc(Cl)c(Cl)c2)C(=O)/C(=C/c2ccc(Cl)c(Cl)c2)C1 [RA190, reference compound]
IC50 (LNCaP; [5]): 242 nM
IC50 (HCC1395): 0.35 nM
IC50 (ANBL6-V10R; Table 3, MTT, 48 hr, Multiple Myeloma, bortezomib resistant): 55 nM
IC50 (OVCAR5; OVCAR-5, Table 3, MTT, 48 hr, Ovarian): 64 nM
IC50 (T22): 16300 nM
IC50 (ES2; [4]): 115 nM
IC50 (PEO14): 375 nM

O=C(CCl)N[C@@H](Cc1ccccc1)C(=O)N1C/C(=C\c2ccc([N+](=O)[O-])cc2)C(=O)/C(=C/c2ccc([N+](=O)[O-])cc2)C1 [RA375]
IC50 (LNCaP; 48 h, read-out: IC50 LNCaP): 60 nM
IC50 (DLD-Seckle): 43 nM
IC50 (HeLa): 13 nM
IC50 (in vitro): 41 nM
IC50 (DLD-BRCA2-Ve): 18 nM
IC50 (ANBL6-V10R; 48 h): 16 nM
IC50 (OVCAR5; OVCAR-5, 48 h): 12 nM
IC50 (A2780): 37 nM
IC50 (ES2; read-out: IC50 ES2): 19 nM

CC1/C(=C\c2ccc([N+](=O)[O-])cc2)C(=O)/C(=C/c2ccc([N+](=O)[O-])cc2)CN1C(=O)[C@H](Cc1ccccc1)NC(=O)CCl (stereo partly shown) [RA414]
IC50 (LNCaP; [5]): 24 nM
IC50 (HCC1395): < 15 nM
IC50 (DLD-Seckle): < 40 nM
IC50 (UWB1.289): < 20 nM
MTD [1]: 10 mg/kg
duration of on-target activity (4UbFL, leg muscle) ([2]; CD1 mice, 3 mg/kg i.p., PEG system): on-target activity over 72 hr similar to bortezomib
IC50 (DLD-BRCA2-Ve): < 40 nM
IC50 (ES2; [4]): 7.5 nM
IC50 (PEO14): 30 nM
accumulation of polyubiquitinated proteins [3]: enhanced the accumulation of polyubiquitinated proteins

From patent US12673918B2, “Small molecule RPN13 inhibitors with antitumor properties” (The Johns Hopkins University, priority 2019, dated 2026)
